Measured values: ChEMBL document CHEMBL5346911, “From PROTAC to inhibitor: Structure-guided discovery of potent and orally bioavailable BET inhibitors” (Eur J Med Chem, 2023)
Values after ≈ are worked out from the molar mass of the structure shown.

How the values were obtained:
cells = conditions: Homo sapiens, NALM16, 72 h
in vitro [1] = conditions: human, plasma
in vitro [2] = conditions: human, plasma; remark: listed apart in the source
HD-MB03 = experiment: cells; conditions: Homo sapiens, HD-MB03, 72 h
D283 Med = experiment: cells; conditions: Homo sapiens, 72 h
[3] = human, microsomes
MOLM-13 = experiment: cells; conditions: Homo sapiens, MOLM-13, 72 h
[4] = target: T1, Bromodomain-containing protein 2 (Homo sapiens, UniProt P25440); experiment: Inhibition of BRD2 BD2 (unknown origin) by TR-FRET assay
MV4-11 = experiment: cells; conditions: Homo sapiens, MV4-11, 72 h
[5] = target: T1, Bromodomain-containing protein 2; experiment: Inhibition of BRD2 BD1 (unknown origin) by TR-FRET assay
[6] = target: T2, Bromodomain-containing protein 4 (Homo sapiens, UniProt O60885)
[7] = target: T2, Bromodomain-containing protein 4; remark: listed apart in the source
[8] = Tmax in CD1 mouse at 10 mg/kg, po measured upto 24 hrs by LC-MS/MS method; type: ADME, organism-based; conditions: in vivo
[9] = Half life in CD1 mouse at 3 mg/kg, po measured upto 24 hrs by LC-MS/MS method; type: ADME, organism-based; conditions: in vivo
[10] = Cmax in CD1 mouse at 3 mg/kg, po measured upto 24 hrs by LC-MS/MS method; type: ADME, organism-based; set-up: time < 24 hrs, dose 3 mg/kg, route po; conditions: in vivo
[11] = buffer, pH 7.4, 18 h
[12] = Apparent volume of distribution during terminal phase in CD1 mouse at 1 mg/kg, iv measured upto 24 hrs by LC-MS/MS method; type: ADME, organism-based; conditions: in vivo
[13] = AUClast in CD1 mouse at 3 mg/kg, po measured upto 24 hrs by LC-MS/MS method; type: ADME, organism-based; set-up: dose 3 mg/kg, time < 24 hrs, route po; conditions: in vivo
[14] = Cmax in CD1 mouse at 1 mg/kg, iv measured upto 24 hrs by LC-MS/MS method; type: ADME, organism-based; set-up: time < 24 hrs, dose 1 mg/kg, route iv; conditions: in vivo
[15] = AUClast in CD1 mouse at 1 mg/kg, iv measured upto 24 hrs by LC-MS/MS method; type: ADME, organism-based; set-up: time < 24 hrs, dose 1 mg/kg, route iv; conditions: in vivo
[16] = Oral bioavailability in CD1 mouse at 10 mg/kg measured upto 24 hrs by LC-MS/MS method; type: ADME, organism-based; conditions: in vivo
[17] = Half life in CD1 mouse at 1 mg/kg, iv measured upto 24 hrs by LC-MS/MS method; type: ADME, organism-based; conditions: in vivo
[18] = Unbound clearance in CD1 mouse at 3 mg/kg, po measured upto 24 hrs by LC-MS/MS method; type: ADME, organism-based; conditions: in vivo
[19] = Downregulation of MYC level in human MV4-11 cells at 1 uM measured after 6 hrs by immunoblotting analysis relative to control; type: functional
[20] = Tmax in CD1 mouse at 3 mg/kg, po measured upto 24 hrs by LC-MS/MS method; type: ADME, organism-based; conditions: in vivo
[21] = Oral bioavailability in CD1 mouse at 3 mg/kg measured upto 24 hrs by LC-MS/MS method; type: ADME, organism-based; conditions: in vivo
[22] = Unbound clearance in CD1 mouse at 1 mg/kg, iv measured upto 24 hrs by LC-MS/MS method; type: ADME, organism-based; conditions: in vivo
[23] = AUClast in CD1 mouse at 10 mg/kg, po measured upto 24 hrs by LC-MS/MS method; type: ADME, organism-based; set-up: dose 10 mg/kg, time < 24 hrs, route po; conditions: in vivo
in vitro [24] = conditions: human, Caco-2
[25] = Unbound clearance in CD1 mouse at 10 mg/kg, po measured upto 24 hrs by LC-MS/MS method; type: ADME, organism-based; conditions: in vivo
[26] = Cmax in CD1 mouse at 10 mg/kg, po measured upto 24 hrs by LC-MS/MS method; type: ADME, organism-based; set-up: time < 24 hrs, dose 10 mg/kg, route po; conditions: in vivo
[27] = Half life in CD1 mouse at 10 mg/kg, po measured upto 24 hrs by LC-MS/MS method; type: ADME, organism-based; conditions: in vivo
[28] = Downregulation of MYC level in human MV4-11 cells at 100 nM measured after 6 hrs by immunoblotting analysis relative to control; type: functional

T1 sequence (P25440 whole entry): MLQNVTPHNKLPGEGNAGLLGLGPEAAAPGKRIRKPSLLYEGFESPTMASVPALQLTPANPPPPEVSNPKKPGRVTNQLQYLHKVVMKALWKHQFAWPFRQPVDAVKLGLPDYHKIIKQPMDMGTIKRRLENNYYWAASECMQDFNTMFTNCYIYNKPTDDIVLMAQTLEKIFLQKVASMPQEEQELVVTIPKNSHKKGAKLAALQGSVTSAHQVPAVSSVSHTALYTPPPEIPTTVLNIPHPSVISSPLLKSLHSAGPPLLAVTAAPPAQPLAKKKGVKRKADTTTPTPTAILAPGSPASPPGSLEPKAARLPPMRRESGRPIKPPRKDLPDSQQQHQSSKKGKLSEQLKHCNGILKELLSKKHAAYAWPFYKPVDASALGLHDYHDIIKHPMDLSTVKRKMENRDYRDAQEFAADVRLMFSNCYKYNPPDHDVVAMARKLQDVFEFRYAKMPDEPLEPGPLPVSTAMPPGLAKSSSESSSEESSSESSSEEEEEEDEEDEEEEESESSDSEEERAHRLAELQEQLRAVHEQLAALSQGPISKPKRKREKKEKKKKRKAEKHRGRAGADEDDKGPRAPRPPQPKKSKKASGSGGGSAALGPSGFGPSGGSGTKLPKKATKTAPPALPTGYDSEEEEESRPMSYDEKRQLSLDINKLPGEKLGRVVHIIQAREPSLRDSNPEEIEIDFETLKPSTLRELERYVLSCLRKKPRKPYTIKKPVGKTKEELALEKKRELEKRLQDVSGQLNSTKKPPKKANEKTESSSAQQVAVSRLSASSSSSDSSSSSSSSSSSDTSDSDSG

## Cc1sc2c(c1C)C(c1ccc(Cl)cc1)=N[C@@H](CC(=O)OC(C)(C)C)c1nnc(C)n1-2
cells
  IC50: 18 nM
In vitro [1]
  fraction unbound: 0.008
In vitro [2]
  half-life at 48 h: > 100 h
HD-MB03
  IC50: 90 nM
D283 Med
  IC50: 60 nM
[3]
  t1/2: 0.4 h

## Cc1sc2c(c1C)C(c1ccc(Cl)cc1)=N[C@@H](CC(=O)NCCc1c[nH]c3ccccc13)c1nnc(C)n1-2
cells
  IC50: 172 nM
MOLM-13
  IC50: 318 nM
HD-MB03
  IC50: 254 nM
[4]
  IC50: 50 nM
MV4-11
  IC50: 182 nM
[5]
  IC50: 252 nM

## COC(=O)[C@H](Cc1c[nH]cn1)NC(=O)C[C@@H]1N=C(c2ccc(Cl)cc2)c2c(sc(C)c2C)-n2c(C)nnc21
[6]
  IC50: 34 nM
cells
  IC50: 791 nM
MOLM-13
  IC50: 200 nM
[4]
  IC50: 9 nM
MV4-11
  IC50: 1140 nM
D283 Med
  IC50: 2930 nM
[7]
  IC50: 6 nM
[5]
  IC50: 32 nM

## Cc1sc2c(c1C)C(c1ccc(Cl)cc1)=N[C@@H](CC(=O)NCCO)c1nnc(C)n1-2
cells
  IC50: 7 nM
MOLM-13
  IC50: 8 nM
HD-MB03
  IC50: 42 nM
D283 Med
  IC50: 413 nM

## Cc1sc2c(c1C)C(c1ccc(Cl)cc1)=N[C@@H](CC(=O)NCc1ccccc1)c1nnc(C)n1-2
cells
  IC50: 452 nM
MOLM-13
  IC50: 385 nM
In vitro [2]
  half-life at 48 h: > 100 h
HD-MB03
  IC50: 619 nM
[4]
  IC50: 0.2 nM
[7]
  IC50: 0.3 nM
[5]
  IC50: 21 nM

## Cc1sc2c(c1C)C(c1ccc(Cl)cc1)=N[C@@H](CC(=O)NCc1cn(C)cn1)c1nnc(C)n1-2
[6]
  IC50: 82 nM
cells
  IC50: 93 nM
MOLM-13
  IC50: 52 nM
In vitro [2]
  half-life at 48 h: > 100 h
HD-MB03
  IC50: 358 nM
[4]
  IC50: 3 nM
MV4-11
  IC50: 143 nM
D283 Med
  IC50: 789 nM
[7]
  IC50: 0.6 nM
[5]
  IC50: 17 nM

## Cc1sc2c(c1C)C(c1ccc(Cl)cc1)=N[C@@H](CC(=O)NCc1cn(C)nn1)c1nnc(C)n1-2
[6]
  IC50: 1410 nM
cells
  IC50: 14 nM
MOLM-13
  IC50: 11 nM
In vitro [2]
  half-life at 48 h: > 100 h
HD-MB03
  IC50: 40 nM
MV4-11
  IC50: 59 nM
[7]
  IC50: 26 nM
[5]
  IC50: 639 nM

## Cc1sc2c(c1C)C(c1ccc(Cl)cc1)=N[C@@H](CC(=O)NCc1c[nH]nn1)c1nnc(C)n1-2
[6]
  IC50: 79 nM
cells
  IC50: 7 nM
MOLM-13
  IC50: 3 nM
In vitro [2]
  half-life at 48 h: > 100 h
HD-MB03
  IC50: 3 nM
MV4-11
  IC50: 253 nM
D283 Med
  IC50: 964 nM
[7]
  IC50: 1 nM
[5]
  IC50: 8 nM

## Cc1sc2c(c1C)C(c1ccc(Cl)cc1)=N[C@@H](CC(=O)NCC(=O)O)c1nnc(C)n1-2
cells
  IC50: > 8850 nM
In vitro [2]
  half-life at 48 h: > 100 h
HD-MB03
  IC50: 9340 nM
[4]
  IC50: 0.3 nM
MV4-11
  IC50: 3060 nM
D283 Med
  IC50: > 8850 nM
[7]
  IC50: 0.4 nM
[5]
  IC50: 146 nM

## COC(=O)CNC(=O)C[C@@H]1N=C(c2ccc(Cl)cc2)c2c(sc(C)c2C)-n2c(C)nnc21
cells
  IC50: 16 nM
MOLM-13
  IC50: 9 nM
HD-MB03
  IC50: 359 nM
D283 Med
  IC50: 337 nM

## Cc1sc2c(c1C)C(c1ccc(Cl)cc1)=N[C@@H](CC(=O)Nc1nncs1)c1nnc(C)n1-2
[8]
  Tmax: 0.5 h
[9]
  t1/2: 3.9 h
[10]
  Cmax: 1555.3 ng/mL
[11]
  solubility: 12 µM (≈ 5.81 µg/mL)
[6]
  IC50: 6 nM
[12]
  Vz/F: 0.8 L/kg
cells
  IC50: 3 nM
MOLM-13
  IC50: 10 nM
In vitro [2]
  half-life at 48 h: > 100 h
[13]
  AUClast: 3275.4 ng·h/mL
[14]
  Cmax: 1930 ng/mL
[15]
  AUClast: 1567.1 ng·h/mL
HD-MB03
  IC50: 6 nM
[16]
  F: 60%
[17]
  t1/2: 1.5 h
[18]
  CL free: 15.2 mL/min/kg
[19]
  Activity: 22%
[20]
  Tmax: 1 h
[4]
  IC50: 0.1 nM
MV4-11
  IC50: 20 nM
D283 Med
  IC50: 56 nM
[21]
  F: 70%
[22]
  CL free: 10.6 mL/min/kg
[3]
  t1/2: 3.2 h
[23]
  AUClast: 9473 ng·h/mL
In vitro [24]
  Papp A→B: 6.65 ×10⁻⁶ cm/s
[7]
  IC50: 0.2 nM
[25]
  CL free: 17.5 mL/min/kg
[26]
  Cmax: 3155.6 ng/mL
[27]
  t1/2: 3.9 h
[28]
  Activity: 50%

## Cc1sc2c(c1C)C(c1ccc(Cl)cc1)=N[C@@H](CC(=O)NCc1ccccn1)c1nnc(C)n1-2
cells
  IC50: 14 nM
MOLM-13
  IC50: 8 nM
HD-MB03
  IC50: 263 nM
[4]
  IC50: 0.3 nM
MV4-11
  IC50: 444 nM
D283 Med
  IC50: 228 nM
[5]
  IC50: 16 nM

## Cc1sc2c(c1C)C(c1ccc(Cl)cc1)=N[C@@H](CC(=O)Nc1nccs1)c1nnc(C)n1-2
cells
  IC50: 6 nM
MOLM-13
  IC50: 22 nM
In vitro [2]
  half-life at 48 h: > 100 h
HD-MB03
  IC50: 4 nM
MV4-11
  IC50: 40 nM
[5]
  IC50: 10 nM

## Cc1sc2c(c1C)C(c1ccc(Cl)cc1)=N[C@@H](CC(=O)NCc1ccon1)c1nnc(C)n1-2
[11]
  solubility: 56.9 µM (≈ 27.4 µg/mL)
cells
  IC50: 12 nM
MOLM-13
  IC50: 14 nM
In vitro [1]
  fraction unbound: 0.065
In vitro [2]
  half-life at 48 h: > 100 h
HD-MB03
  IC50: 17 nM
[4]
  IC50: 0.1 nM
MV4-11
  IC50: 32 nM
D283 Med
  IC50: 25 nM
[3]
  t1/2: 0.4 h
In vitro [24]
  Papp A→B: 15 ×10⁻⁶ cm/s
[5]
  IC50: 3 nM

## Cc1sc2c(c1C)C(c1ccc(Cl)cc1)=N[C@@H](CC(=O)NCc1ncco1)c1nnc(C)n1-2
MOLM-13
  IC50: 2 nM
HD-MB03
  IC50: 1 nM
[4]
  IC50: 0.1 nM
D283 Med
  IC50: 18 nM
[5]
  IC50: 9 nM

## Cc1sc2c(c1C)C(c1ccc(Cl)cc1)=N[C@@H](CC(=O)Nc1ccc(O)cc1)c1nnc(C)n1-2 [BIRABRESIB]
[11]
  solubility: 23.4 µM (≈ 11.5 µg/mL)
cells
  IC50: 14 nM
MOLM-13
  IC50: 11 nM
In vitro [1]
  fraction unbound: 0.027
In vitro [2]
  half-life at 48 h: > 100 h
MV4-11
  IC50: 22 nM
D283 Med
  IC50: 66 nM
[3]
  t1/2: 1.7 h
In vitro [24]
  Papp A→B: 22.2 ×10⁻⁶ cm/s
